Data taken from PMC7781311 (bioRxiv, 2021).
Starred links: 1 amine or outer side, 2 acyl side, 3 side chain; linkers in the order of their positions; H or OH if unused. Residues, ends and D or L forms follow the SMILES beside them. CO = O=C([*:1])[*:2]

What follows are compounds tested on SARS-CoV-2-S pseudotyped particles (PP). Conditions: not given.
Type: cell-based

Structure (SMILES)	SARS-2 PP Efficacy
N=C(N)c1ccc2nc(-c3cc(CC(=O)N[C@@H](CC(=O)O)C(=O)O)cc(-c4cc(S(N)(=O)=O)ccc4O)c3O)[nH]c2c1 [NCGC00387860, PCI-27483]	about 60%
CCOC(=O)c1ccc(OC(=O)CCCCCNC(=N)N)cc1 [NCGC00025297, Gabexate]	0%
CN(C)C(=O)COC(=O)Cc1ccc(OC(=O)c2ccc(NC(=N)N)cc2)cc1 [NCGC00167526, Camostat]	100%
N=C(N)c1ccc2cc(OC(=O)c3ccc(N=C(N)N)cc3)ccc2c1 [NCGC00160398, Nafamostat]	100%
CC(C)[C@H](NC(=O)[C@H](CCCNC(=N)N)NC(=O)N[C@@H](Cc1ccccc1)C(=O)O)C(=O)N[C@H](C=O)CCCNC(=N)N [NCGC00390338, Antipain] ({Phe-CO}-Arg-Val-Arg-aldehyde)	about 60%
COC(=O)[C@H](Cc1cccc(C(=N)N)c1)[C@@H](C)NC(=O)c1ccc(-c2cc[n+]([O-])cc2)cc1 [NCGC00378763, Otamixaban]	50%

Same assay, conditions: listed as otamixaban

Structure (SMILES)	SARS-2 PP Efficacy
COC(=O)[C@H](Cc1cccc(C(=N)N)c1)[C@@H](C)NC(=O)c1ccc(-c2cc[n+]([O-])cc2)cc1 [NCGC00378763, Otamixaban]	about 50%
